These results are taken from patent US10174011B2, “Heterocyclic compounds, process for preparation of the same and use thereof” (SHANGHAI INSTITUTE OF MATERIA MEDICA, CHINESE ACADEMY OF …, priority 2014, dated 2019).

Test [1] deals with human recombinant D2 receptor (Homo sapiens (Human), UniProt P14416). In words: D2 receptor antagonism activity test (inhibition of dopamine-induced decrease of cAMP production, LANCE cAMP 384 Kit). Particulars: read-out: D2 receptor antagonism (IC50, mol/L), HEK293 cells expressing human recombinant D2 receptor, 0.1 nM-10000 nM.
Test [2] addresses human recombinant 5-HT2A receptor (Homo sapiens (Human), UniProt P28223). In words: 5-HT2A receptor antagonism activity test (FLIPR Calcium 5 Assay Kit). The following applies: read-out: 5-HT2A receptor antagonism (IC50, mol/L).
Test [3] addresses human recombinant 5-HT1A receptor (Homo sapiens (Human), UniProt P08908). In words: 5-HT1A receptor agonism activity test (inhibition of cAMP production, LANCE cAMP 384 Kit). Type of test: cell-based. Particulars: HEK293 cells expressing human recombinant 5-HT1A receptor; test concentration 0.1 nM-10000 nM; read-out: 5-HT1A receptor agonism (EC50, mol/L). The text has this: Pharmacological Test 1) 5-HT1A Receptor Agonism Activity Test
On the technique in general: Changes in cAMP serve as a functional read-out for many G protein-coupled receptors.

[4] abbreviates: CHO-K1 cells expressing human recombinant 5-HT2A receptor, α-methyl-5-hydroxytryptamine 300 nM, 0.1 nM-10000 nM.

Structures can show the parent of a compound that is named as a salt. Where two headings read alike, the source gives them in different places.

human recombinant 5-HT2A receptor, sequence (P28223 whole entry): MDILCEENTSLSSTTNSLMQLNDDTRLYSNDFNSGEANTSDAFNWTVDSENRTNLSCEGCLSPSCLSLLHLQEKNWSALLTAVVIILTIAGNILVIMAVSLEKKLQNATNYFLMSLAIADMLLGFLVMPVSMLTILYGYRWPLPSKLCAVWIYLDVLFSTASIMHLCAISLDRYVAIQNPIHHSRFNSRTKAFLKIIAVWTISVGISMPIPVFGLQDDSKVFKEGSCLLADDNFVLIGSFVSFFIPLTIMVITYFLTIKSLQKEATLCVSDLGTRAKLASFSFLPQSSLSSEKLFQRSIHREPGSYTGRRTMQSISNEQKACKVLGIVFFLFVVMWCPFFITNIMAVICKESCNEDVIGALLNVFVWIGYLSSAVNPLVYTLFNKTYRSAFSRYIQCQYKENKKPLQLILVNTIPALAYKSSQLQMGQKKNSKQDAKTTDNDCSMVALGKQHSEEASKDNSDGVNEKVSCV
human recombinant 5-HT1A receptor, sequence (P08908 whole entry): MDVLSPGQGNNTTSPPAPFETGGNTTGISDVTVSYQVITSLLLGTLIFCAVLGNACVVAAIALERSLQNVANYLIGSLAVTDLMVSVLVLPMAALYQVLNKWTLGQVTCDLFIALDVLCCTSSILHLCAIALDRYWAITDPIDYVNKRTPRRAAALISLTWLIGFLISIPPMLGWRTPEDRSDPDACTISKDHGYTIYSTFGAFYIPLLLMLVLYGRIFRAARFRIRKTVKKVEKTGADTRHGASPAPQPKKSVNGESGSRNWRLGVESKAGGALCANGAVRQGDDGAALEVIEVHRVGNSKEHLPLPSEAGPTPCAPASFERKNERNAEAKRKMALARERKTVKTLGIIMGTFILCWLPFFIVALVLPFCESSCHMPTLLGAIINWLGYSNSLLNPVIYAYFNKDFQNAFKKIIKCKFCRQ
human recombinant D2 receptor, sequence (P14416 whole entry): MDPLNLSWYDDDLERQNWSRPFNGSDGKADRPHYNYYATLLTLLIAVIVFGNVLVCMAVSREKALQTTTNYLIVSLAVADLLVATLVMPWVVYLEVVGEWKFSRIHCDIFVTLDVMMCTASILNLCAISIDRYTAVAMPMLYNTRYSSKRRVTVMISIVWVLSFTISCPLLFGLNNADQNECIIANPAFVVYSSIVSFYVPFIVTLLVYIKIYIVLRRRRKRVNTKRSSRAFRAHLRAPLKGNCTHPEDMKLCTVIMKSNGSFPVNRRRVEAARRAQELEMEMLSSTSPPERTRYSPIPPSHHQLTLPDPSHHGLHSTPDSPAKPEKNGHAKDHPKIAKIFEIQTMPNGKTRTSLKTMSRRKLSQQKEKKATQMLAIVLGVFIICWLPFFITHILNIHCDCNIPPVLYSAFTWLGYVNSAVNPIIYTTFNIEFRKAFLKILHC

Regarding `O=C1Cc2cc(CCN3CCN(c4cccc5c4CCS5)CC3)c(Cl)cc2N1` [Compound of example 1, 6-chloro-5-(2-(4-(2,3-dihydrobenzo[b]thiophen-4-yl)piperazin-1-yl)ethyl)indolin-2-one], the figures for the IC50 in test [1] and in test [2] (setting [4]) were 56.9 nM and 227 nM, respectively. The EC50 in test [3] was determined as 3.31 nM.
`O=c1ccc2ccc(CCN3CCN(c4cccc5sccc45)CC3)cc2[nH]1` [Compound of example 9, 7-(2-(4-(benzo[b]thiophen-4-yl)piperazin-1-yl)ethyl)quinolin-2(1H)-one]: the IC50 was 7.06 nM in test [1] and 95.6 nM in test [2]. The EC50 in test [3] is 0.972 nM.
Turning to `O=c1ccc2ccc(CCCCCN3CCN(c4cccc5sccc45)CC3)cc2[nH]1` [Compound of example 11, 7-(5-(4-(benzo[b]thiophen-4-yl)piperazin-1-yl)pentyl)quinolin-2(1H)-one], the IC50 in test [2] (setting [4]) was found to be 209 nM. The EC50 in test [3] amounted to 1.95 nM.
Regarding `Cc1nc2c(OCc3ccccc3)cccn2c(=O)c1CCN1CCN(c2cccc3sccc23)CC1` [Compound of example 17, 3-(2-(4-(benzo[b]thiophen-4-yl)piperazin-1-yl)ethyl)-9-(benzyloxy)-2-methyl-4H-pyrido[1,2-a]pyrimidin-4-one hydrochloride], the IC50 in test [2] (setting [4]) was 350 nM.
On to `O=C1CCc2cc(Cl)c(CCN3CCN(c4cccc5sccc45)CC3)cc2N1` [Compound of example 23, 7-(2-(4-(benzo[b]thiophen-4-yl)piperazin-1-yl)ethyl)-6-chloro-3,4-dihydroquinolin-2(1H)-one], for which the IC50 is 81.2 nM in test [1] and 97.6 nM in test [2] (setting [4]). Also, the EC50 in test [3] was 463 nM.
For the compound `Cc1nc2ccc(CCCCCN3CCN(c4cccc5sccc45)CC3)cc2c(=O)[nH]1` [Compound of example 24, 6-(5-(4-(benzo[b]thiophen-4-yl)piperazin-1-yl)pentyl)-2-methylquinazolin-4(3H)-one], the IC50 worked out at 50.7 nM in test [1] and 781 nM in test [2] (setting [4]). Also, in test [3], the EC50 was found to be 25.9 nM.
Turning to `O=c1ccc2ccc(CCN3CCN(c4cccc5c4CCS5)CC3)cc2[nH]1` [Compound of example 25, 7-(2-(4-(2,3-dihydrobenzo[b]thiophen-4-yl)piperazin-1-yl)ethyl)quinolin-2(1H)-one], the IC50 in test [1] was found to be 85.1 nM; in test [2], 77.9 nM. Moreover, the EC50 in test [3] worked out at 0.824 nM.
As for `O=c1[nH]cnc2ccc(CCCCCN3CCN(c4cccc5sccc45)CC3)cc12` [Compound of example 34, 6-(5-(4-(benzo[b]thiophen-4-yl)piperazin-1-yl)pentyl)quinazolin-4(3H)-one hydrochloride], the IC50 in test [1] is 324 nM. Further, the EC50 in test [3] came to 54 nM.
As for `O=c1[nH]c(CCN2CCN(c3cccc4sccc34)CC2)nc2ccccc12` [Compound of example 35, 2-(2-(4-(benzo[b]thiophen-4-yl)piperazin-1-yl)ethyl)quinazolin-4(3H)-one], the IC50 in test [1] came to 216 nM; in test [2] (setting [4]), 21.5 nM. Further, the EC50 in test [3] was determined as 41.9 nM.
As to `O=C1Cc2cc(CCN3CCC(c4cccc5sccc45)CC3)c(Cl)cc2N1` [Compound of example 37, 5-(2-(4-(benzo[b]thiophen-4-yl)piperidin-1-yl)ethyl)-6-chloroindolin-2-one], the figures for the IC50 in test [1] and in test [2] (setting [4]) were 51.9 nM and 28.1 nM, respectively. Further, in test [3], the EC50 came out at 3.11 nM.
Take `O=C1Cc2cc(CCN3CCN(c4cncc5sccc45)CC3)c(Cl)cc2N1` [Compound of example 42, 6-chloro-5-(2-(4-(thieno[2,3-c]pyridin-4-yl)piperazin-1-yl)ethyl)indolin-2-one]: the values for the IC50 in test [1] and in test [2] (setting [4]) were 270 nM and 115 nM, respectively. For the same compound, the EC50 in test [3] is 100 nM.
For the compound `O=c1ccc2ccc(CCN3CCN(c4cncc5sccc45)CC3)cc2[nH]1` [Compound of example 43, 7-(2-(4-(thieno[2,3-c]pyridin-4-yl)piperazin-1-yl)ethyl)quinolin-2(1H)-one], the values for the IC50 in test [1] and in test [2] (setting [4]) were 241 nM and 286 nM, respectively. Also, in test [3], the EC50 came to 1.23 nM.
Regarding `c1ccc2[nH]c(CN3CCN(c4cccc5sccc45)CC3)nc2c1` [Compound of example 58, 2-((4-(benzo[b]thiophen-4-yl)piperazin-1-yl)methyl)-1H-benzo[d]imidazole], the IC50 in test [1] was 101 nM; in test [2] (setting [4]) it was 2170 nM. Also, in test [3], the EC50 came to 4.55 nM.
For `O=C1COc2cc(F)c(CCN3CCN(c4cccc5sccc45)CC3)cc2N1` [Compound of example 66, 6-(2-(4-(benzo[b]thiophen-4-yl)piperazin-1-yl)ethyl)-7-fluoro-2H-benzo[b][1,4]oxazin-3(4H)-one], in that order: 61.7 nM, 81.5 nM and 1.29 nM.
Turning to `N#Cc1ccc2[nH]cc(CCCCN3CCN(c4cccc5sccc45)CC3)c2c1` [Compound of example 70, 3-(4-(4-(benzo[b]thiophen-4-yl)piperazin-1-yl)butyl)-1H-indole-5-carbonitrile], the results for the IC50 in test [1] and in test [2] (setting [4]) were 79.7 nM and 332 nM, respectively. Further, in test [3], the EC50 stood at 9.7 nM.
As for `O=C1Cc2cc(CCN3CCN(c4cc(F)cc5sccc45)CC3)ccc2N1` [Compound of example 84, 5-(2-(4-(6-fluorobenzo[b]thiophen-4-yl)piperazin-1-yl)ethyl)indolin-2-one], the IC50 in test [1] amounted to 10.9 nM; in test [2] (setting [4]) it was 17.5 nM. In addition, the EC50 in test [3] worked out at 0.235 nM.
For `Cn1c(=O)[nH]c2ccc(CCN3CCN(c4cccc5sccc45)CC3)cc21` [Compound of example 86, 6-(2-(4-(benzo[b]thiophen-4-yl)piperazin-1-yl)ethyl)-1-methyl-1H-benzo[d]imidazol-2(3H)-one], in that order: 23.5 nM, 93.3 nM and 21.6 nM.
`COc1ccc2[nH]cc(CCN3CCN(c4cccc5sccc45)CC3)c2c1` [Compound of example 105, 3-(2-(4-(benzo[b]thiophen-4-yl)piperazin-1-yl)ethyl)-5-methoxy-1H-indole]: the IC50 in test [2] is 25.5 nM.
Regarding `N#Cc1ccc2[nH]cc(CCN3CCN(c4cccc5sccc45)CC3)c2c1` [Compound of example 109, 3-(2-(4-(benzo[b]thiophen-4-yl)piperazin-1-yl)ethyl)-1H-indole-5-carbonitrile], the figures for the IC50 in test [1] and in test [2] (setting [4]) were 243 nM and 200 nM, respectively.
Turning to `Nc1nc2cc(CCN3CCN(c4cccc5sccc45)CC3)ccc2s1` [Compound of example 116, 5-(2-(4-(benzo[b]thiophen-4-yl)piperazin-1-yl)ethyl)benzo[d]thiazol-2-amine], the IC50 in test [1] was found to be 5.97 nM.
On to `Nc1nc2c(CCN3CCN(c4cccc5sccc45)CC3)cccc2s1` [Compound of example 120, 4-(2-(4-(benzo[b]thiophen-4-yl)piperazin-1-yl)ethyl)benzo[d]thiazol-2-amine], for which the IC50 in test [1] worked out at 229 nM.
On to `c1cc(N2CCN(CCCCc3nnnn3C3CCCCC3)CC2)c2ccsc2c1` [Compound of example 138, 1-(benzo[b]thiophen-4-yl)-4-(4-(1-cyclohexyl-1H-tetrazol-5-yl)butyl)piperazine hydrochloride], for which the IC50 in test [1] was determined as 9.4 nM.
